The values below come from patent US11028077B2, “Crystalline pharmaceutical and methods of preparation and use thereof” (NOVARTIS PHARMACEUTICALS CORPORATION, priority 2008, dated 2021).

SMILES strings stand for the structures. A value given as a limit tells only on which side of the number the result lay.

In data set [1] the test system is cell attachment and SEB IL-2 release. Description: cells. It counts as cell-based.
Data set [2] has as its system rats. Briefly: Pilot rat dermal study. It counts as in vivo. The conditions noted are these: 1% lotion, ointment, gel, DMSO; TID seven days, 10 mg/cm^2. As for the experimental part:
The safety and tolerability of prototypical dermal formulations (1% lotion, ointment, and gel) were assessed on rats given TID for seven consecutive days—approximately 6 cm^2 with 10 mg/cm^2.

Data set [3] concerns rats. Description: Respiratory function in rats, single IV bolus, head-out plethysmograph. It counts as in vivo, rat. The conditions noted are these: any dose.
The test system of the next data set is dogs (beagles). Description: Cardiovascular effects in conscious telemetry-instrumented dogs, IV bolus. It counts as in vivo, dog. The settings on record: IV bolus injection.
Data set [4] concerns dogs. Description: 13-week ocular toxicity study in dogs with 4-week recovery (toxicity and TK). The conditions noted are these: dogs (3%).
Data set [5] can be described thus: Single dose ocular and IV ADME study with [14C]-compound in rats, quantitative whole body autoradiography. It counts as in vivo, rat. The settings on record: tissue distribution in pigmented vs albino rats.
A short description of data set [6]: Single dose ADME study with [14C]-compound in dogs. The settings on record: dog, for 16 hrs. Format: in vivo. The text has this: No differences in results from male and female dogs were observed.
The nature of data set [7]: Skin transport studies on microtomed human skin. Format: in vitro ADME. The settings on record: 1% (w/w) prototypes; [^14C]-compound. From the text: Prototypes have been developed and tested on microtomed human skin from elective surgery at 1% (w/w). The forms include gels, ointment, or lotion. […]
The nature of data set [8]: Plasma PK after single IV bolus dose in rats. It counts as in vivo, rat.
For data set [9], the system named is dogs. Description: Pilot ocular tolerance / PK of topically administered compound in dogs. It counts as in vivo, dog. The conditions noted are these: up to 10% strength at 3 doses/day.
Data set [10] in a line: Rat ocular pharmacokinetics of [14C]-compound (ocular tissue levels). Format: in vivo. The settings on record: rat, for 16 hrs.
In data set [11] the test system is HuT 78 cell adhesion to 5dICAM-Ig. Briefly: Human T-cell adhesion assay (HuT 78 cell adhesion to 5dICAM-Ig). The conditions noted are these: HuT78, HuT 78 cells, read-out: EC50, inhibition of T-cell adhesion. It counts as cell-based. As for the experimental part: The T-cell adhesion assay was performed using the human T-lymphoid cell line HuT 78 (ATCC TIB-161). Goat anti-HuIgG(Fc) was diluted to 2 μg/ml in PBS and 96-well plates were coated with 50 μl/well at 37° C. for 1 h. Plates were washed with PBS and blocked for 1 h at room temperature with 1% BSA in PBS. 5 domain ICAM-Ig was diluted to 100 ng/ml in PBS and 50 μl/well was added to the plates O/N at 4° C. HuT 78 cells were centrifuged at 100 g and the cell pellet was treated with 5 mM EDTA for ˜5′ at 37° C. in a 5% CO2 incubator. Cells were washed in 0.14 M NaCl, 0.02 M Hepes, 0.2% glucose and 0.1 mM MnCl2 (assay buffer) and centrifuged. The cells were resuspended in assay buffer to 3.0×10^6 c/ml Inhibitors were diluted in assay buffer to a 2× final concentration and pre-incubated with HuT78 cells for 30′ at room temperature. 100 μl/well of cells and inhibitors were added to the plates and incubated at room temperature for 1 h. 100 μl/well PBS was added and the plates were sealed and centrifuged inverted at 100 g for 5′. Unattached cells were flicked out of the plate and excess PBS was blotted on a paper towel. […] The enzyme reaction was stopped with […] 50 mM glycine/5 mM EDTA and read on a platereader at […]. HUT 78 cell adhesion to 5dICAM-Ig was measured using the p-nitrophenyl n-acetyl-f3-D-glucosaminide method of Landegren, U. (1984). […]

Where [12] appears, read: single IV bolus 30.0 mg/kg, from rat safety pharmacology study.

Take `CS(=O)(=O)c1cccc(C[C@H](NC(=O)c2c(Cl)cc3c(c2Cl)CCN(C(=O)c2ccc4ccoc4c2)C3)C(=O)O)c1` [compound of Formula I]: the half-maximal inhibitory concentration (IC50) (usually the concentration that inhibits the measured activity by half) in [1] worked out at 2 nM. Further, in the data set on rats [2], the serum level entry is “detectable in serum”. Further, in the data set on rats [3], the “respiratory function (tidal volume, respiration rate, minute volume)” value is reported as “No adverse changes in respiratory function or adverse effects”. Besides, the “effects on electrocardiography or hemodynamic parameters” value in the data set with dogs (beagles) is “No effects on electrocardiography or hemodynamic parameters”. In addition, the NOAEL (usually the highest dose or exposure tested at which no adverse effect was seen) in the data set with dogs [4] was 1.05 mg/eye/3× per day. In data set [5], the binding to melanin result is “did not preferentially bind to melanin”. Further, the levels in conjunctiva/cornea entry in [6] was “greater than 1 micromolar”. Besides, in data set [7], the concentration in dermis result is reported as “greater than 10 micromolar” and the dose penetration is given as 2-4%. Moreover, in data set [8] (single IV bolus 10.0 mg/kg), the AUC0-n is 728 ng·h/mL; the CL turned out to be 173 mL/min/kg; the Cmax (usually the peak of the concentration-time curve) is given as 1056 ng/mL; the MRT (in general, a mean duration of stay, worked out from the concentration-time curve) was 0.920 h. Also, in data set [8] (single IV bolus 10.0 mg/kg), the T1/2 was determined as 3.76 h; the distribution volume (Vss) (usually a proportionality between amount in the body and measured concentration, not a real space) is 9.56 L/kg. In data set [8] (setting [12]), the AUC0-n came out at 2345.5 ng·h/mL and the Cmax is given as 5117.3 ng/mL. For the same molecule, in the data set with dogs [9], the “ocular safety and tolerability” value was “safe and well tolerated”. Besides, the levels in conjunctiva/cornea in [10] is more than 100 nM. The EC50 (commonly the concentration needed to bring the measured effect to its halfway point) in data set [11] is less than 50 nM.
